Measurements from patent US10654882B2, “Nicotinamide mononucleotide derivative and salt thereof, method for producing same, topical skin preparation, cosmetic and food additive” (SHOWA DENKO K.K., priority 2015, dated 2020).
Where two headings read alike, the source gives them in different places.

System: three-dimensional cultured human skin model (EPI-606X)
Test: Skin permeability test
Method: A three-dimensional cultured human skin model (EPI-606X, Kurabo Industries Ltd., area: 3.8 cm^2) was placed in a 6-well plate containing PBS solution (1 mL) so that the lower portion thereof was submerged. The human skin model was then allowed to stand undisturbed for 30 minutes in an incubator under conditions of 37° C. and a carbon dioxide concentration of 5%. Next, the PBS solution in the lower wells of the skin model was replaced with HBSS(−) solution (Hanks solution, 1 mL) (to be referred to as the “receiver liquid”) and the sample solution (700 μL) obtained above was administered onto the skin model. The skin model was then allowed to stand undisturbed for 24 hours in an incubator under conditions of 37° C. and a carbon dioxide concentration of 5%.
After allowing to stand undisturbed for 24 hours, the sample solution on the skin model was removed using a pipette followed by removing the skin model from the wells and washing with PBS (−) solution. Next, a section of the skin model was cut out and placed in a 2 mL tube. Methanol (1 mL) and stainless steel beads (Tomy Co., Ltd., diameter: 5.5 mm) were added to the tube followed by crushing the section using a Multi Beads Shocker (Yasui Kikai Corp.) under conditions of 10 seconds at 2000 rpm for 10 cycles.
Following crushing, the resulting solution was transferred to a 2 mL Eppendorf tube and centrifuged for 5 minutes at 12000 rpm followed by filtering the supernatant with a filter (pore diameter: 0.22 μm) to obtain a skin model extract.
Next, the amounts of test substance in the skin model extract and receiver liquid were quantified for each test substance under the previously described HPLC Analysis Conditions 1. The total amount of test substance absorbed by the skin model in each well was calculated from the quantified value of test substance in the skin model extract. In addition, the quantified value of test substance in the receiver liquid was used as the amount of test substance that permeated the skin model. The total value A (μg) of the total amount of test substance absorbed by the skin model and the amount of test substance that permeated the skin model was then calculated.
The permeation rate (%) through the skin model for each test substance administered to the skin model was calculated according to the following equation (i). Moreover, the aforementioned skin permeability test was carried out three times for each test substance followed by calculation of each permeation rate (%). […] Furthermore, the value shown in front of the (±) symbol in the column entitled “Permeation Rate (%)” indicates the average value of the three results, while the number after the (±) symbol indicates the range of variation of the three results. Permeation rate (%)=(A/1400(amount of test substance administered to skin model) (μg)))×100 (i)

[1] = 0.2% by weight sample solution in PBS(-), pH 7.4, 700 μL on skin model, 24 hours, 37° C., average ± range of variation of three results
[2] = skin model, 24 hours, compared with non-acylated β-NMN or among the examples

Row | SMILES | Permeation Rate (%) (pH 7.4) | Permeation rate, comparison in words | Permeation Rate (%) [1] [%] | Permeation rate, comparison in words [2]
1 | CCCCCCCCCCCCCCCC(=O)O[C@@H]1[C@H](OC(=O)CCCCCCCCCCCCCCC)[C@@H](COP(=O)([O-])O)O[C@H]1[n+]1cccc(C(N)=O)c1 [Example 2, 2′,3′-dipalmitoyl-β-nicotinamide mononucleotide] | – | – | 41 ± 1.7 | particularly high
2 | CC(=O)O[C@@H]1[C@H](OC(C)=O)[C@@H](COP(=O)([O-])O)O[C@H]1[n+]1cccc(C(N)=O)c1 [Synthesis Example 1, 2′,3′-diacetyl-β-nicotinamide mononucleotide, reference compound] | – | – | 16 ± 1.7 | equal to that of the non-acylated β-NMN of Comparative Example 2
3 | CCCCCCCCCCCCCCCC(=O)O[C@@H]1[C@H](OC(=O)CCCCCCCCCCCCCCC)[C@@H](COP(=O)([O-])[O-])O[C@H]1[n+]1cccc(C(N)=O)c1.[Na+] [Example 11, 2′,3′-dipalmitoyl-β-NMN sodium salt] | 41 ± 2.7 | high permeation rate in comparison with the non-acylated β-NMN of Comparative Example 2 | – | –
4 | CCCCCCCC(=O)OC1C(COP(=O)([O-])O)OC([n+]2cccc(C(N)=O)c2)C1OC(=O)CCCCCCC (stereo not drawn) [Example 6, 2′,3′-dioctanoyl-β-NMN] | – | – | 38 ± 4.7 | –
5 | CCCCCCCCCCCC(=O)O[C@@H]1[C@H](OC(=O)CCCCCCCCCCC)[C@@H](COP(=O)([O-])O)O[C@H]1[n+]1cccc(C(N)=O)c1 [Example 4, 2′,3′-dilauroyl-β-NMN] | 40 ± 4.7 | particularly high | – | –
6 | NC(=O)c1ccc[n+]([C@@H]2O[C@H](COP(=O)([O-])O)[C@@H](O)[C@H]2O)c1 [Comparative Example 2, β-nicotinamide mononucleotide, reference compound] | 15 ± 0.4 | – | – | –
7 | CCCCCCCCCCCCCCCC(=O)O[C@H]1[C@@H](O)[C@H]([n+]2cccc(C(N)=O)c2)O[C@@H]1COP(=O)([O-])O [Example 1, 3′-palmitoyl-β-nicotinamide mononucleotide] | – | – | 40 ± 4.7 | particularly high

Second part, led by results:

Row | Permeation Rate (%) (pH 7.4) | Permeation rate, comparison in words | SMILES | Permeation Rate (%) [1] [%] | Permeation rate, comparison in words [2]
8 | 29 ± 4.7 | – | CCCCCC(=O)O[C@H]1[C@@H](O)[C@H]([n+]2cccc(C(N)=O)c2)O[C@@H]1COP(=O)([O-])O [Example 7, 3′-hexanoyl-β-NMN] | – | –
9 | 37 ± 2.7 | – | CCCCCC(=O)O[C@@H]1[C@H](OC(=O)CCCCC)[C@@H](COP(=O)([O-])O)O[C@H]1[n+]1cccc(C(N)=O)c1 [Example 8, 2′,3′-dihexanoyl-β-NMN] | – | –
10 | 35 ± 4.7 | particularly high | CCCCCCCCCCCC(=O)O[C@H]1[C@@H](O)[C@H]([n+]2cccc(C(N)=O)c2)O[C@@H]1COP(=O)([O-])O [Example 3, 3′-lauroyl-β-NMN] | – | –
11 | 31 ± 4.7 | – | CCCCCCCC(=O)O[C@H]1[C@@H](O)[C@H]([n+]2cccc(C(N)=O)c2)O[C@@H]1COP(=O)([O-])O [Example 5, 3′-octanoyl-β-NMN] | – | –
